Blank lines part the entries; values can stand above or below the compound they belong to.
How the values were obtained:
[1] = In vitro release, USP release method with apparatus 2 (paddle); type: physicochemical; conditions: 100 rpm, 900 ml phosphate buffer pH 6.8 + 1.0% sodium lauryl sulfate, JP sinker
Experimental: The in vitro release investigations described below were carried out by the USP release method with apparatus 2 (paddle). […] Also added to the buffer solution to set up sink conditions is 1% sodium lauryl sulfate. The tablet formulations are preferably released from a sinker as specified in the Japanese Pharmacopoeia.

[2] = cited from earlier work

Release [%] at 2 h ([1]; from tablet Exemplary formulation 2.1 (30 mg nifedipine, osmotic two-chamber system), time 2 h): 2% | Release [%] at 4 h ([1]; from tablet Exemplary formulation 2.1 (30 mg nifedipine, osmotic two-chamber system), time 4 h): 19% | Release [%] at 8 h ([1]; from tablet Exemplary formulation 2.1 (30 mg nifedipine, osmotic two-chamber system), time 8 h): 48% | Release [%] at 12 h ([1]; from tablet Exemplary formulation 2.1 (30 mg nifedipine, osmotic two-chamber system), time 12 h): 77% | Release [%] at 24 h ([1]; from tablet Exemplary formulation 2.1 (30 mg nifedipine, osmotic two-chamber system), time 24 h): 96%
Structure (SMILES): CCCCc1nc(Cl)c(CO)n1Cc1ccc(-c2ccccc2-c2nn[nH]n2)cc1 [Losartan-K, losartan potassium]
water solubility, classified in words [2]: freely soluble

Release [%] at 2 h ([1]; from nifedipine/telmisartan osmotic two-chamber tablet, heading prints Exemplary Formulation 2.1, time 2 h): 5% | Release [%] at 5 h ([1]; from nifedipine/telmisartan osmotic two-chamber tablet, heading prints Exemplary Formulation 2.1, time 5 h): 22% | Release [%] at 10 h ([1]; from nifedipine/telmisartan osmotic two-chamber tablet, heading prints Exemplary Formulation 2.1, time 10 h): 51% | Release [%] at 15 h ([1]; from nifedipine/telmisartan osmotic two-chamber tablet, heading prints Exemplary Formulation 2.1, time 15 h): 80% | Release [%] at 24 h ([1]; from nifedipine/telmisartan osmotic two-chamber tablet, heading prints Exemplary Formulation 2.1, time 24 h): 90%
Structure (SMILES): CCCc1nc2c(C)cc(-c3nc4ccccc4n3C)cc2n1Cc1ccc(-c2ccccc2C(=O)O)cc1 [Telmisartan]

Structure (SMILES): CCOc1nc2cccc(C(=O)OC(C)OC(=O)OC3CCCCC3)c2n1Cc1ccc(-c2ccccc2-c2nnn[nH]2)cc1 (stereo not shown) [candesartan cilexetil]
water solubility, classified in words [2]: virtually insoluble in water

Structure (SMILES): COC(=O)C1=C(C)NC(C)=C(C(=O)OCC(C)C)C1c1ccccc1[N+](=O)[O-] (stereo not shown) [nisoldipine]
water solubility [2]: about 2 mg/l
